Test results published in patent US20210015134A1, “CONSUMABLES” (Givaudan S.A., priority 2006, published 2021).

Legend:
[1] = test system: sweet sensitive panelists; experiment: Ranking test, near threshold sweetness isointensity of enhancer in water (Example 3b); assay type: in vivo
Description: The sensory evaluation was conducted using a ranking method. Samples at ambient temperature were randomly presented in 15 ml blind aliquots (unidentifiable by panelists). […] After tasting each sample, the mouth was rinsed thoroughly with water at ambient temperature prior to tasting the next sample. […] They were asked to rank the samples from low to high with respect to perceived sweet taste.

[2] = test system: sucrose sweetness; settings: at its sweetness detection threshold; Kroeze et al., Chem. Senses 2000; cited from earlier work
[3] = test system: sweet sensitive panelists; experiment: Forced choice test of sweetness enhancers with sweetness rating (Example 2); assay type: in vivo; settings: scale 0-10
Description: A forced choice test of sweetness enhancers in water, 2% sucrose and 7% sucrose
All sweetness enhancer samples were evaluated at the same concentration, which was selected close to the threshold of each sweetness enhancer, in 0% sucrose (water), 2% sucrose, and 7% sucrose.
The test samples were evaluated by a sensory panel of 10 sweet sensitive panelists. Samples were presented in 3 replicates to each panelist to give n=30 evaluations for each panel. The sensory evaluation was conducted using a forced choice method. Samples were presented blind, unidentifiable by panelists. Three runs at different sucrose concentrations were performed (0% sucrose (water/negative control), 2% sucrose, 7% sucrose). In each run, the sweetness enhancer sample was compared by panelists to a corresponding sample without sweetness enhancer at the same sucrose concentration. Panelists were instructed that they had to choose one of the samples as sweeter. The data was analyzed using beta-binomial analysis. […]
Alternatively, 0% (water), 0.5% and/or 1% and/or 1.5% sucrose were used for samples/corresponding controls and evaluated accordingly.
As a further control, the sweetness enhancer in water was compared to 0.5% and/or 1% and/or 1.5% sucrose. The result determined the sweetness intensity of the sweetness enhancer compound as such, without the sweetness due to the enhancement of sucrose.

Compound | isointensity to sucrose solution ([1]; 2 ppm in water) | NDHC sample sweetness ([1]; 2 ppm in water vs 0.5% sucrose) | NDHC sample sweetness ([1]; 2 ppm in water vs 1% sucrose) | enhancement of sucrose sweetness [2] | rating 1% sucrose ([3]; rating 2 of Example 12B) | rating 1% sucrose ([3]; rating 2 of Example 12C)
COc1ccc(CCC(=O)c2c(O)cc(O[C@@H]3O[C@H](CO)[C@@H](O)[C@H](O)[C@H]3O[C@@H]3O[C@@H](C)[C@H](O)[C@@H](O)[C@H]3O)cc2O)cc1O [NDHC, Neohesperidin dihydrochalcone] | 0.5 % sucrose | isosweet | less sweet | does not enhance sucrose sweetness |  | 
OC[C@H]1O[C@@](CO)(O[C@H]2O[C@H](CO)[C@@H](O)[C@H](O)[C@H]2O)[C@@H](O)[C@@H]1O [sucrose, α-D-glucopyranosyl-(1→2)-β-D-fructofuranose] |  |  |  |  | 0.81 ± 0.08 | 0.72 ± 0.06
